Data as given in patent US20090105278A1, “Selective inhibitors of human corticosteroid syntheses” (Universitat Des Saarlandes, priority 2004, published 2009).
Where a name gives a salt, the structure may show the parent alone. Read-outs that look alike come from different tables or passages of the source.

What was measured:
[1] = target: T1, human CYP11B1 (Homo sapiens, UniProt P15538); experiment: V79 MZh 11B1 cells inhibition test; assay type: cell-based
T1 construct: expressed in transfected cells; host or cells: V79 MZh11B1 (Chinese hamster lung fibroblasts)
T1 sequence (P15538 25-503): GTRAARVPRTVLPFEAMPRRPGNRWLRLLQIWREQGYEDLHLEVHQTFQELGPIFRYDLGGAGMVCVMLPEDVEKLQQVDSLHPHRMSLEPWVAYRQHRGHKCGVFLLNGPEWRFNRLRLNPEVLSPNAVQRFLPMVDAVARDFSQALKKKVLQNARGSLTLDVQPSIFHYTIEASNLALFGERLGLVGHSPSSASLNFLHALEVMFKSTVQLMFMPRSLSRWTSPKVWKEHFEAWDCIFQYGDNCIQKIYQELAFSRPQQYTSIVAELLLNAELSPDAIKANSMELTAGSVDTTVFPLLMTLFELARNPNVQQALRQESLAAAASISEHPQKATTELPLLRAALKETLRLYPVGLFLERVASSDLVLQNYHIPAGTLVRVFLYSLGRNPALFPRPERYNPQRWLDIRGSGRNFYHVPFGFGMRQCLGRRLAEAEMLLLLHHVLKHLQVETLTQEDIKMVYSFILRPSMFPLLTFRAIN
Experimental: Both cell lines were cultured in DMEM^+ containing […] and the antibiotics penicillin and streptomycin (10%) for protection from bacterial contamination. The cells were passaged every 2-3 days after treatment with trypsin/EDTA because the doubling rate was 1-2 days depending on the number of cells. […] When there was further need, freshly thawed cells were employed.
Thereafter, the plate was stored at 37° C. and […] in a CO2 incubator. […] Controls without inhibitor were treated in the same way. The enzyme reactions were quenched by extracting the supernatant with 500 μl of EtOAc. The samples were centrifuged (10,000 g, 2 min), the solvent was removed and evaporated.
It was calculated by determining the percent inhibition for at least 3 different inhibitor concentrations, which must all be in the linear range of the sigmoidal IC50 curve (log C/% inhibition).
The calculation was effected by linear regression. The values determined were used only if they formed a straight line with a reliability of […].
The plate was developed twice with the mobile solvent chloroform:methanol:water (300:20:1). Unlabeled 11-deoxycorticosterone and corticosterone were applied as a reference for the CYP11B1 reaction. For the CYP11B2 reaction, 11-deoxycorticosterone, corticosterone, 18-hydroxycorticosterone and aldosterone were used as references. The detection of the unlabeled references was effected at 260 nm. Subsequently, imaging plates (BAS MS2340, for ^14C samples, Raytest, Straubenhardt, Germany) were exposed to the HPTLC plates for 48 h. The imaging plates were scanned with the phosphoimager system Fuji FLA 3000 (Raytest, Straubenhardt, Germany), and the steroids were quantified.

[2] = target: T2, human CYP17 (Homo sapiens, UniProt P05093); experiment: Percent inhibition of CYP17 (membrane fraction of E. coli pJL17/OR); assay type: biochemical; settings: E. coli which expresses human CYP17, 5 mg/ml protein, progesterone substrate 2.5 μM, inhibitor 2.5 μM; for inhibition at 2.5 µM: read-out: % Inhibition human CYP17
T2 construct: made in house; host or cells: E. coli pJL17/OR (membrane fraction)
T2 sequence (P05093 1-508): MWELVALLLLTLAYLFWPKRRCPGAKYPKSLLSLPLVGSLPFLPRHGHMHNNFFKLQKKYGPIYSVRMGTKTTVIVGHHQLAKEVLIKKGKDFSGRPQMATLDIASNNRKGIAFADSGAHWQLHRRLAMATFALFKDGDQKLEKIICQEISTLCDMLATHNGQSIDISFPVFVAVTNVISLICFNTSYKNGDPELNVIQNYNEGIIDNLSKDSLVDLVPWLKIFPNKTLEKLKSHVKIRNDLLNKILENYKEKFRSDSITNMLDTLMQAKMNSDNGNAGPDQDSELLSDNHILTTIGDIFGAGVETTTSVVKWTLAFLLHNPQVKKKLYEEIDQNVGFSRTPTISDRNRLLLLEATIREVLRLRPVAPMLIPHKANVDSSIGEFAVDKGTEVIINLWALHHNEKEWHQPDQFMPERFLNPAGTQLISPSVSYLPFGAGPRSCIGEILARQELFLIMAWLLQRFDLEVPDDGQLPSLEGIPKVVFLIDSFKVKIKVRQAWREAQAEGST
Experimental: The recombinantly altered E. coli strain pJL17/OR, in which human CYP17 and rat NADPH-P450-reductase were coexpressed, was grown and stored according to the method of Ehmer et al. (Ehmer, P. B. et al., J. Steroid Biochem. Mol. Biol. 75: 57-63 (2000)). For isolating the membrane fraction, 5 ml of the bacterial cell suspension with an OD578 of 50 was washed with phosphate buffer (0.05 M; pH 7.4; 1 mM MgCl2; 0.1 mM EDTA and 0.1 mM DTT). The bacteria were removed by centrifugation and resuspended in 10 ml of ice cold TES buffer (0.1 M tris-acetate; pH 7.8; 0.5 mM EDTA; 0.5 M sucrose). Four milligrams of lysozyme in 10 ml of ice cold water was added to obtain a final concentration of 0.2 mg/ml. This was followed by incubation for 30 minutes under continued shaking on ice. The spheroblasts were obtained by a renewed centrifugation step at 12,000 g for 10 min and again resuspended in 3 ml of ice cold phosphate buffer (composition see above, additionally 0.5 mM PMSF).
After freezing and thawing, the cells were lysed on ice with an ultrasonic disintegrator. The whole cells and the cell debris were centrifuged off at 3000 g for 7 min. The supernatant was again centrifuged at 50,000 g for 20 min at 4° C. A membrane pellet sedimented and was resuspended in 2 ml of phosphate buffer (composition see above) with […] by means of an Ultra-Turrax mixer. […] Aliquots with an approximate protein concentration of 5 mg/ml were stored at −70° C. until use.
Control incubations were performed in parallel with 5 μl DMSO without urea. The reaction was started by adding 50 μl of a membrane suspension diluted 1 to 5 in phosphate buffer (0.8 to 1 mg of protein per ml). After thoroughly mixing the components, the mixture was incubated at 37° C. for 30 min.
The steroids were extracted with 1 ml of EtOAc. […] After the centrifugation, 800 μl of the organic phase was removed, placed into a new vessel and evaporated to dryness. The samples were dissolved in 50 μl of a water-methanol mixture (1:1) and analyzed by HPLC. The substrate conversion was calculated from the ratio of the areas of the product peaks (17α-hydroxyprogesterone and 16α-hydroxyprogesterone) to that of the substrate peak. The activity of the inhibitors was calculated from the reduced substrate conversion after the addition of inhibitors in accordance with the following formula: […]

[3] = hamster fibroblasts which express human CYP11B1, deoxycorticosterone substrate 100 nM, read-out: IC50 V79 11B1 hCYP11B1

| Compound | IC50 [1, 3] [nM] | inhibition at 2.5 µM [2] [%] | IC50 ([1]; Table 7: preincubation 1 h, DOC 100 nM, incubation 140 min, read-out: V79MZh11B1 CYP11B1 DOC [IC50]) [nM] | % Inhibition human CYP17 [2] [%] |
| --- | --- | --- | --- | --- |
| C(=C1/CCCc2ccccc21)/c1cccnc1.Cl [Compound 3a, 3-[(E)-3,4-Dihydronaphthalene-1(2H)-ylidenemethyl]pyridine Hydrochloride] | 715 | 9 | – | – |
| COc1ccc2c(c1)CC/C2=C/c1cccnc1 [Compound 11b, 3-[(Z)-(5-Methoxy-2,3-dihydro-1H-indane-1-ylidene)methyl]pyridine Hydrochloride] | 790 | 49 | – | – |
| Cl.Clc1ccc2c(c1)CC/C2=C\c1cnc[nH]1 [Compound 48a, 5-[(E)-(5-Chloro-2,3-dihydro-1H-indene-1-ylidene)methyl]-1H-imidazolium chloride] | – | 37 | – | – |
| Fc1ccc2c(c1)CC/C2=C/c1ccncc1 [Compound 6b, 4-[(Z)-(5-Fluoro-2,3-dihydro-1H-indane-1-ylidene)methyl]pyridine Hydrochloride] | 257 | 29 | – | – |
| Fc1ccc2c(c1)CC/C2=C/c1cccnc1 [Compound 5b, 3-[(Z)-(5-Fluoro-2,3-dihydro-1H-indane-1-ylidene)methyl]pyridine Hydrochloride] | 125 | 16 | 125 | – |
| C(=C1\CCCc2ccccc21)/c1cccnc1.Cl [Compound 3b, 3-[(Z)-3,4-Dihydronaphthalene-1(2H)-ylidenemethyl]pyridine Hydrochloride] | 1420 | 24 | – | – |
| Fc1ccc2c(c1)CC/C2=C\c1cccnc1 [Compound 5a, 3-[(E)-(5-Fluoro-2,3-dihydro-1H-indane-1-ylidene)methyl]pyridine Hydrochloride] | 311 | 17 | – | – |
| 5-[(Z)-3,4-Dihydronaphth-1(2H)-ylidenemethyl]-1H-imidazolium oxalate [Compound 41b] | – | – | – | 13 |
| Brc1ccc2c(c1)CC/C2=C/c1cccnc1 [Compound 9b, 3-[(Z)-(5-Bromo-2,3-dihydro-1H-indane-1-ylidene)methyl]pyridine Hydrochloride] | 320 | 24 | – | – |
| C(=C1\CCc2ccccc21)/c1cccnc1.Cl [Compound 1b, 3-[(Z)-2,3-Dihydro-1H-indane-1-ylidenemethyl]pyridine Hydrochloride] | 86.6 | – | – | 33 |
| 5-[(Z)-(5-Chloro-2,3-dihydro-1H-indene-1-ylidene)methyl]-1H-imidazolium oxalate [Compound 48b] | – | – | – | 26 |
| Brc1ccc2c(c1)CC/C2=C\c1cccnc1 [Compound 9a, 3-[(E)-(5-Bromo-2,3-dihydro-1H-indane-1-ylidene)methyl]pyridine Hydrochloride] | 1940 | 16 | – | – |
| C(=C1/CCCc2ccccc21)/c1cnc[nH]1 [Compound 41a, 5-[(E)-3,4-Dihydronaphth-1(2H)-ylidenemethyl]-1H-imidazole] | – | 13 | – | – |
| Brc1ccc2c(c1)CC/C2=C\c1cnc[nH]1.Cl [Compound 49a, 5-[(E)-(5-Bromo-2,3-dihydro-1H-indene-1-ylidene)methyl]-1H-imidazolium chloride] | – | 13 | – | – |
| 5-[(E)-(6-Chloro-3,4-dihydronaphth-1(2H)-ylidene)methyl]-1H-imidazolium chloride [Compound 46a] | – | – | – | 24 |

Second part, led by results:

| IC50 [1, 3] [nM] | inhibition at 2.5 µM [2] [%] | Compound | IC50 ([1]; Table 7: preincubation 1 h, DOC 100 nM, incubation 140 min, read-out: V79MZh11B1 CYP11B1 DOC [IC50]) [nM] | % Inhibition human CYP17 [2] [%] |
| --- | --- | --- | --- | --- |
| 1130 | 57 | Fc1ccc2c(c1)CC/C2=C\c1cccc2cnccc12 [Compound 30a, 5-[(E)-(5-Fluoro-2,3-dihydro-1H-indane-1-ylidene)methyl]isoquinoline Hydrochloride] | – | – |
| 304 | 14 | Clc1cccc2c1CC/C2=C\c1cccnc1 [Compound 25a, 3-[(E)-(4-Chloro-2,3-dihydro-1H-indane-1-ylidene)methyl]pyridine Hydrochloride] | – | – |
| 955 | 5 | COc1cccc2c1/C(=C/c1cccnc1)CC2 [Compound 26a, 3-[(E)-(7-Methoxy-2,3-dihydro-1H-indane-1-ylidene)methyl]pyridine Hydrochloride] | – | – |
| 903 | 20 | COc1ccc2c(c1)CCC/C2=C\c1cccnc1 [Compound 13a, 3-[(E)-(6-Methoxy-3,4-dihydronaphthalene-1(2H)-ylidene)methyl]pyridine Hydrochloride] | – | – |
| 2370 | 13 | CCOc1ccc2c(c1)CC/C2=C\c1cccnc1 [Compound 19a, 3-[(E)-(5-Ethoxy-2,3-dihydro-1H-indane-1-ylidene)methyl]pyridine Hydrochloride] | – | – |
| 2700 | 6 | CCOc1ccc2c(c1)CC/C2=C/c1cccnc1 [Compound 19b, 3-[(Z)-(5-Ethoxy-2,3-dihydro-1H-indane-1-ylidene)methyl]pyridine Hydrochloride] | – | – |
| 763 | 40 | Cc1cccc2c1CC/C2=C\c1cccnc1 [Compound 23a, 3-[(E)-(4-Methyl-2,3-dihydro-1H-indane-1-ylidene)methyl]pyridine Hydrochloride] | – | – |
| 657 | 32 | Clc1cccc2c1CC/C2=C/c1cccnc1 [Compound 25b, 3-[(Z)-(4-Chloro-2,3-dihydro-1H-indane-1-ylidene)methyl]pyridine Hydrochloride] | – | – |
| 206 | 17 | COc1ccc2c(c1)CCC/C2=C/c1cccnc1.Cl [Compound 13b, 3-[(Z)-(6-Methoxy-3,4-dihydronaphthalene-1(2H)-ylidene)methyl]pyridine Hydrochloride] | – | – |
